{"source": "PubChem BioAssay AID2060493", "about": "(Molecular Pharmacology Branch, DTP, NCI, 2025);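 note: spheroids exposed to agents for 7 days before readout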;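 for viability, T/C: percent viability relative to DMSO vehicle control wells taken as 100%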", "system": "616215-338-R-J1-PDC tumor spheroids, viability", "experiment": "Anticancer human tumor 616215-338-R-J1-PDC patient-derived colon adenocarcinoma cell line growth inhibition [GQUAD]", "conditions": "spheroids with HUVEC and MSC; for IC50: curve of first compound; for viability, T/C: stronger effect = lower value", "in_short": "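Tumor cells were grown as complex spheroids with HUVEC endothelial cells and mesenchymal stem cells as stroma. G-quadruplex stabilizers were combined with targeted agents over half-log dilutions from near the clinical Cmax, or from 10 microM.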", "key": {"[1]": {"conditions": "second compound 0.0316 µM, first compound 0.0316 µM"}, "[2]": {"conditions": "second compound 0.0316 µM, first compound 0.1 µM"}, "[3]": {"conditions": "second compound 0.0316 µM, first compound 0.316 µM"}, "[4]": {"conditions": "second compound 0.0316 µM, first compound 1 µM"}, "[5]": {"conditions": "second compound 0.0316 µM, first compound 3.16 µM"}, "[6]": {"conditions": "second compound 0.0316 µM, first compound 10 µM"}, "[7]": {"conditions": "second compound 0.1 µM, first compound 0.0316 µM"}, "[8]": {"conditions": "second compound 0.1 µM, first compound 0.1 µM"}, "[9]": {"conditions": "second compound 0.1 µM, first compound 0.316 µM"}, "[10]": {"conditions": "second compound 0.1 µM, first compound 1 µM"}, "[11]": {"conditions": "second compound 0.1 µM, first compound 3.16 µM"}, "[12]": {"conditions": "second compound 0.1 µM, first compound 10 µM"}, "[13]": {"conditions": "second compound 0.316 µM, first compound 0.0316 µM"}, "[14]": {"conditions": "second compound 0.316 µM, first compound 0.1 µM"}, "[15]": {"conditions": "second compound 0.316 µM, first compound 0.316 µM"}, "[16]": {"conditions": "second compound 0.316 µM, first compound 1 µM"}, "[17]": {"conditions": "second compound 0.316 µM, first compound 3.16 µM"}, "[18]": {"conditions": "second compound 0.316 µM, first compound 10 µM"}, "[19]": {"conditions": "second compound 1 µM, first compound 0.0316 µM"}, "[20]": {"conditions": "second compound 1 µM, first compound 0.1 µM"}, "[21]": {"conditions": "second compound 1 µM, first compound 0.316 µM"}, "[22]": {"conditions": "second compound 1 µM, first compound 1 µM"}, "[23]": {"conditions": "second compound 1 µM, first compound 3.16 µM"}, "[24]": {"conditions": "second compound 1 µM, first compound 10 µM"}, "[25]": {"conditions": "second compound 3.16 µM, first compound 0.0316 µM"}, "[26]": {"conditions": "second compound 3.16 µM, first compound 0.1 µM"}, "[27]": {"conditions": "second compound 3.16 µM, first compound 0.316 µM"}, "[28]": {"conditions": "second compound 3.16 µM, first compound 1 µM"}, "[29]": {"conditions": "second compound 3.16 µM, first compound 3.16 µM"}, "[30]": {"conditions": "second compound 3.16 µM, first compound 10 µM"}, "[31]": {"conditions": "second compound 10 µM, first compound 0.0316 µM"}, "[32]": {"conditions": "second compound 10 µM, first compound 0.1 µM"}, "[33]": {"conditions": "second compound 10 µM, first compound 0.316 µM"}, "[34]": {"conditions": "second compound 10 µM, first compound 1 µM"}, "[35]": {"conditions": "second compound 10 µM, first compound 3.16 µM"}, "[36]": {"conditions": "second compound 10 µM, first compound 10 µM"}}}
{"smiles": "COc1cc(C2c3cc4c(cc3C(OC3OC5COC(C)OC5C(O)C3O)C3COC(=O)C23)OCO4)cc(OC)c1O", "note": "(centres undefined) + Cc1cnc(CNC(=O)c2c(=O)c3ccc(N4CCCN(C)CC4)nc3n3c2sc2ccccc23)cn1", "values": [{"measurement": "IC50", "setting": "second compound 0.0316 µM", "value": 481, "unit": "nM"}, {"measurement": "IC50", "setting": "second compound 0.1 µM", "value": 456, "unit": "nM"}, {"measurement": "IC50", "setting": "second compound 0.316 µM", "value": "< 31.6", "unit": "nM"}, {"measurement": "IC50", "setting": "second compound 1 µM", "value": "< 31.6", "unit": "nM"}, {"measurement": "IC50", "setting": "second compound 3.16 µM", "value": "< 31.6", "unit": "nM"}, {"measurement": "IC50", "setting": "second compound 10 µM", "value": "< 31.6", "unit": "nM"}, {"measurement": "viability, T/C", "setting": "[1]", "value": 104, "unit": "%"}, {"measurement": "viability, T/C", "setting": "[2]", "value": 98.3, "unit": "%"}, {"measurement": "viability, T/C", "setting": "[3]", "value": 54.3, "unit": "%"}, {"measurement": "viability, T/C", "setting": "[4]", "value": 44.2, "unit": "%"}, {"measurement": "viability, T/C", "setting": "[5]", "value": 57.3, "unit": "%"}, {"measurement": "viability, T/C", "setting": "[6]", "value": 23.9, "unit": "%"}, {"measurement": "viability, T/C", "setting": "[7]", "value": 65.7, "unit": "%"}, {"measurement": "viability, T/C", "setting": "[8]", "value": 61, "unit": "%"}, {"measurement": "viability, T/C", "setting": "[9]", "value": 55.8, "unit": "%"}, {"measurement": "viability, T/C", "setting": "[10]", "value": 38.8, "unit": "%"}, {"measurement": "viability, T/C", "setting": "[11]", "value": 32.2, "unit": "%"}, {"measurement": "viability, T/C", "setting": "[12]", "value": 30.6, "unit": "%"}, {"measurement": "viability, T/C", "setting": "[13]", "value": 39.5, "unit": "%"}, {"measurement": "viability, T/C", "setting": "[14]", "value": 46.2, "unit": "%"}, {"measurement": "viability, T/C", "setting": "[15]", "value": 29.3, "unit": "%"}, {"measurement": "viability, T/C", "setting": "[16]", "value": 36.3, "unit": "%"}, {"measurement": "viability, T/C", "setting": "[17]", "value": 30.6, "unit": "%"}, {"measurement": "viability, T/C", "setting": "[18]", "value": 17.7, "unit": "%"}, {"measurement": "viability, T/C", "setting": "[19]", "value": 32.3, "unit": "%"}, {"measurement": "viability, T/C", "setting": "[20]", "value": 32.8, "unit": "%"}, {"measurement": "viability, T/C", "setting": "[21]", "value": 33.8, "unit": "%"}, {"measurement": "viability, T/C", "setting": "[22]", "value": 34.3, "unit": "%"}, {"measurement": "viability, T/C", "setting": "[23]", "value": 23.3, "unit": "%"}, {"measurement": "viability, T/C", "setting": "[24]", "value": 18.4, "unit": "%"}, {"measurement": "viability, T/C", "setting": "[25]", "value": 34.5, "unit": "%"}, {"measurement": "viability, T/C", "setting": "[26]", "value": 23.7, "unit": "%"}, {"measurement": "viability, T/C", "setting": "[27]", "value": 28.3, "unit": "%"}, {"measurement": "viability, T/C", "setting": "[28]", "value": 27, "unit": "%"}, {"measurement": "viability, T/C", "setting": "[29]", "value": 28.2, "unit": "%"}, {"measurement": "viability, T/C", "setting": "[30]", "value": 24.3, "unit": "%"}, {"measurement": "viability, T/C", "setting": "[31]", "value": 28.2, "unit": "%"}, {"measurement": "viability, T/C", "setting": "[32]", "value": 29.7, "unit": "%"}, {"measurement": "viability, T/C", "setting": "[33]", "value": 26.6, "unit": "%"}, {"measurement": "viability, T/C", "setting": "[34]", "value": 36.3, "unit": "%"}, {"measurement": "viability, T/C", "setting": "[35]", "value": 22.3, "unit": "%"}, {"measurement": "viability, T/C", "setting": "[36]", "value": 23.8, "unit": "%"}]}
{"smiles": "O=c1[nH]cc(F)c(=O)[nH]1", "note": "+ Cc1[nH]c2ccc(F)cc2c1-c1nc2c3cccnc3c3ncccc3c2[nH]1", "values": [{"measurement": "IC50", "setting": "second compound 0.0316 µM", "value": 685, "unit": "nM"}, {"measurement": "IC50", "setting": "second compound 0.1 µM", "value": 380, "unit": "nM"}, {"measurement": "IC50", "setting": "second compound 0.316 µM", "value": 592, "unit": "nM"}, {"measurement": "IC50", "setting": "second compound 1 µM", "value": 729, "unit": "nM"}, {"measurement": "IC50", "setting": "second compound 3.16 µM", "value": 342, "unit": "nM"}, {"measurement": "IC50", "setting": "second compound 10 µM", "value": 289, "unit": "nM"}, {"measurement": "viability, T/C", "setting": "[1]", "value": 97.7, "unit": "%"}, {"measurement": "viability, T/C", "setting": "[2]", "value": 96.9, "unit": "%"}, {"measurement": "viability, T/C", "setting": "[3]", "value": 64.3, "unit": "%"}, {"measurement": "viability, T/C", "setting": "[4]", "value": 43, "unit": "%"}, {"measurement": "viability, T/C", "setting": "[5]", "value": 48.1, "unit": "%"}, {"measurement": "viability, T/C", "setting": "[6]", "value": 37, "unit": "%"}, {"measurement": "viability, T/C", "setting": "[7]", "value": 102, "unit": "%"}, {"measurement": "viability, T/C", "setting": "[8]", "value": 94.4, "unit": "%"}, {"measurement": "viability, T/C", "setting": "[9]", "value": 51.8, "unit": "%"}, {"measurement": "viability, T/C", "setting": "[10]", "value": 41.3, "unit": "%"}, {"measurement": "viability, T/C", "setting": "[11]", "value": 36.3, "unit": "%"}, {"measurement": "viability, T/C", "setting": "[12]", "value": 35.1, "unit": "%"}, {"measurement": "viability, T/C", "setting": "[13]", "value": 99.6, "unit": "%"}, {"measurement": "viability, T/C", "setting": "[14]", "value": 92.6, "unit": "%"}, {"measurement": "viability, T/C", "setting": "[15]", "value": 57.1, "unit": "%"}, {"measurement": "viability, T/C", "setting": "[16]", "value": 47, "unit": "%"}, {"measurement": "viability, T/C", "setting": "[17]", "value": 37, "unit": "%"}, {"measurement": "viability, T/C", "setting": "[18]", "value": 34.2, "unit": "%"}, {"measurement": "viability, T/C", "setting": "[19]", "value": 96, "unit": "%"}, {"measurement": "viability, T/C", "setting": "[20]", "value": 94.8, "unit": "%"}, {"measurement": "viability, T/C", "setting": "[21]", "value": 65.1, "unit": "%"}, {"measurement": "viability, T/C", "setting": "[22]", "value": 46.1, "unit": "%"}, {"measurement": "viability, T/C", "setting": "[23]", "value": 39.2, "unit": "%"}, {"measurement": "viability, T/C", "setting": "[24]", "value": 43.6, "unit": "%"}, {"measurement": "viability, T/C", "setting": "[25]", "value": 98.3, "unit": "%"}, {"measurement": "viability, T/C", "setting": "[26]", "value": 82.9, "unit": "%"}, {"measurement": "viability, T/C", "setting": "[27]", "value": 51.5, "unit": "%"}, {"measurement": "viability, T/C", "setting": "[28]", "value": 37.6, "unit": "%"}, {"measurement": "viability, T/C", "setting": "[29]", "value": 38.8, "unit": "%"}, {"measurement": "viability, T/C", "setting": "[30]", "value": 42.7, "unit": "%"}, {"measurement": "viability, T/C", "setting": "[31]", "value": 102, "unit": "%"}, {"measurement": "viability, T/C", "setting": "[32]", "value": 83.8, "unit": "%"}, {"measurement": "viability, T/C", "setting": "[33]", "value": 46.7, "unit": "%"}, {"measurement": "viability, T/C", "setting": "[34]", "value": 38.9, "unit": "%"}, {"measurement": "viability, T/C", "setting": "[35]", "value": 34.3, "unit": "%"}, {"measurement": "viability, T/C", "setting": "[36]", "value": 36.2, "unit": "%"}]}
